What was measured:
[1] = In vitro hepatocyte metabolic stability, rat; format: in vitro ADME; conditions: hepatocytes (cryopreserved, suspension), 0.5×10^6 cells/mL
Protocol: (§1) • 1. Experimental objective: The aim of the study was to assess the stability of the compounds in hepatocytes of different species. • 2. Experimental steps:
(§2) A variety of 96-well precipitation plates were prepared and labeled as T0, T15, T30, T60, T90, T0-MC, T90-MC, and blank matrix, respectively. Revival medium and incubation medium were taken in advance and pre-warmed in a 37° C. water bath. Hepatocytes of different species, stored in a liquid nitrogen tank, were taken and immediately immersed in a 37° C. water bath for approximately 90 seconds. Once partially thawed, cells were transferred to centrifuge tubes containing 40 mL of revival medium, and gently inverted to resuspend the cells in the revival medium. At room temperature, cells were centrifuged at 100×g for 5 minutes. The supernatant was discarded, and the hepatocytes were resuspended in an appropriate volume of incubation medium. Viability was calculated using trypan blue staining. 198 μL of hepatocyte suspension (0.51×10^6 cells/mL) was added to pre-warmed incubation plates. For the control group, 198 μL of hepatocyte-free incubation medium was added to T0-MC and […] plates. All plates were pre-incubated for 10 minutes in a 37° C. incubator. […] All samples were mixed well and analyzed using LC/MS/MS methods.

[2] = In vitro hepatocyte metabolic stability, mouse; format: in vitro ADME; conditions: hepatocytes (cryopreserved, suspension), 0.5×10^6 cells/mL
Protocol: as §1, §2

[3] = In vitro hepatocyte metabolic stability, human; format: in vitro ADME; conditions: hepatocytes (cryopreserved, suspension), 0.5×10^6 cells/mL
Protocol: as §1, §2

[4] = Solid stability test (XRPD detection of crystal form); format: physicochemical
Excerpt: For samples placed under high temperature and high humidity conditions, the vial was sealed with aluminum foil punched with small holes to ensure that the samples were in full contact with the ambient air; for samples placed under strong light conditions, the vial was sealed with a threaded cap. The samples placed under different conditions were sampled and detected (XRPD) on day 5, day 10, and month 1, and the results were compared with the initial results on day 0.

[5] = target: T1, sGC (Homo sapiens, UniProt Q02153); experiment: cGMP expression test based on LNCap cells (HTRF, with ODQ); format: cell-based
T1 construct: Minimum effective concentration required to stimulate cGMP production in LNCap cells; endogenous in cells; host or cells: LNCaP cells (no transfection described)
T1 sequence (Q02153 1-619): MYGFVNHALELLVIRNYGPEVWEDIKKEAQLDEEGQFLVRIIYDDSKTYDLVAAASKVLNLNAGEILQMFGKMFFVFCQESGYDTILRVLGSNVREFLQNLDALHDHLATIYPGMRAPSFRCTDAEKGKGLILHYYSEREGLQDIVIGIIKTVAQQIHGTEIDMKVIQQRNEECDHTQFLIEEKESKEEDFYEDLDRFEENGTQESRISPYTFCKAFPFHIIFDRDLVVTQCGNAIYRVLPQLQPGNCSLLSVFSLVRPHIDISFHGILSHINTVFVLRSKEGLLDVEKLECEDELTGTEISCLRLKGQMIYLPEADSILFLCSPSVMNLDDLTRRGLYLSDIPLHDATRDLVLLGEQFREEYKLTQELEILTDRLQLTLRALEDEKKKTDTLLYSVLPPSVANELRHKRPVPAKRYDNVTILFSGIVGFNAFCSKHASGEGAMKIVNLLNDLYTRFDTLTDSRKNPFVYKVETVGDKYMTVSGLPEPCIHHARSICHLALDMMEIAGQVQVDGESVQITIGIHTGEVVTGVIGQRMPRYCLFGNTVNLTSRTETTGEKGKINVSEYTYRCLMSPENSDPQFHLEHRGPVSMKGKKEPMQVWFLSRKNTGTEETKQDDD
T1 sequence (Q02108 1-690 partner): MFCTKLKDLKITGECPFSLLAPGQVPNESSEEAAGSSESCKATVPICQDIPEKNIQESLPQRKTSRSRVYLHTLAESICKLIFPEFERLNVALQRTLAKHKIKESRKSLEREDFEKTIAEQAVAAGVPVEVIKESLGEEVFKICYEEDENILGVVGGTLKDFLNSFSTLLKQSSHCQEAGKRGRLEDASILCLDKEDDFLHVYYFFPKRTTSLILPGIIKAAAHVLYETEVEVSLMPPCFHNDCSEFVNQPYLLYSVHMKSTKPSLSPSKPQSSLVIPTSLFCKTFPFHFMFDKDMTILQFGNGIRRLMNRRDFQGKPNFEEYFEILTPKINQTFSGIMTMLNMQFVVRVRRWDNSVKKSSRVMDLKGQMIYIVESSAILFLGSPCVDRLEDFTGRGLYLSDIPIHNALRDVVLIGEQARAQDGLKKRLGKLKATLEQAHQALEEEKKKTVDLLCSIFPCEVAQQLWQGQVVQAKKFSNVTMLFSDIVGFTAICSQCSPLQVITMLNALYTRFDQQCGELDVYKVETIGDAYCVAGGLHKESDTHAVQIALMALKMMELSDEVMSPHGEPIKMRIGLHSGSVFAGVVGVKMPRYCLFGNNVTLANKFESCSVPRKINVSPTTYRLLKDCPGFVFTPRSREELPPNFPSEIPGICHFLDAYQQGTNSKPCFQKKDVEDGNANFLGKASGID
Protocol: I. CGMP Expression Test Based on InCap Cells
10 g of BSA was dissolved in 100 mL of double-distilled water (ddH2O) to obtain 10% BSA.
1 mg of ODQ powder was weighed and dissolved in 534 μL of DMSO to prepare 10 mM ODQ solution. The solution was aliquoted and stored in a −20° C. refrigerator.
• a) 50 μL of cGMP-D2 (D2-labeled cyclic guanosine monophosphate) was added to 1 mL of lysis buffer and mixed thoroughly. • b) 50 μL of anti-cGMP cryptate (Eu^3+ cryptate-labeled anti-cyclic guanosine monophosphate antibody) was added to 1 mL of lysis buffer and mixed thoroughly.
• (1) The compound was diluted to a concentration of 10 mM using DMSO. • (2) A serial dilution of the compound was performed, resulting in 10 different concentration levels of each compound. […]
• (1) cGMP-D2 was transferred to a 384-well plate at 5 μL per well. […] Centrifugation was performed at 1500 rpm for 1 minute. • (2) Incubation was carried out at room temperature for 1 hour. • (3) The plates were read using envision at 665/615 wavelengths.
• (1) cGMP standard curve: A standard curve was generated using GraphPad Prism, based on the ratio of cGMP concentration to the 665/615 wavelength values. • (2) Conversion of HTRF (homogeneous time-resolved fluorescence) ratio (665/615) to cGMP concentration: In GraphPad Prism, the HTRF ratio (665/615) was copied to the ratio column of the cGMP standard curve. […]

## COC12CC([C@H](CC(=O)O)c3ccc(Cl)c(NC(=O)[C@H](c4ccc(Cl)cc4)[C@@H](C)C(F)(F)F)c3)(C1)C2 [Compound of formula (I)]
[1]
  half-life at 1 μM: 1.3 h
[1]; read-out: CLint (liver)
  CLint scaled at 1 μM: 82.9 mL/min/kg
[2]
  half-life at 1 μM: 1.42 h
[2]; read-out: CLint (liver)
  CLint scaled at 1 μM: 193 mL/min/kg
[3]
  half-life at 1 μM: 2.58 h
[3]; read-out: CLint (liver)
  CLint scaled at 1 μM: 24.9 mL/min/kg

## COC12CC([C@H](CC(=O)O)c3ccc(Cl)c(NC(=O)[C@H](c4ccc(Cl)cc4)[C@@H](C)C(F)(F)F)c3)(C1)C2
[4]; 40° C./75% RH (open), Day 5
  Crystal form: Crystal form A
[4]; 40° C./75% RH (open), Day 10
  Crystal form: Crystal form A
[4]; 40° C./75% RH (open), Month 1
  Crystal form: Crystal form A
[4]; 60° C./75% RH (open), Day 5
  Crystal form: Crystal form A
[4]; 60° C./75% RH (open), Day 10
  Crystal form: Crystal form A
[4]; 60° C./75% RH (open), Month 1
  Crystal form: Crystal form A
[4]; Day 0 (initial)
  Crystal form: Crystal form A
[4]; High humidity (25° C./relative humidity: 92.5%, open), Day 5
  Crystal form: Crystal form A
[4]; High humidity (25° C./relative humidity: 92.5%, open), Day 10
  Crystal form: Crystal form A
[4]; High humidity (25° C./relative humidity: 92.5%, open), Month 1
  Crystal form: Crystal form A
[4]; High temperature (60° C., open), Day 5
  Crystal form: Crystal form A
[4]; High temperature (60° C., open), Day 10
  Crystal form: Crystal form A
[4]; High temperature (60° C., open), Month 1
  Crystal form: Crystal form A
[4]; Strong light (5000 lx, sealed), Day 5
  Crystal form: Crystal form A
[4]; Strong light (5000 lx, sealed), Day 10
  Crystal form: Crystal form A
[4]; Strong light (5000 lx, sealed), Month 1
  Crystal form: Crystal form A
[5]; cGMP production in LNCap cells
  EC50: 21.2 nM
[5]; minimum effective concentration to stimulate cGMP production in LNCap cells (greater than three times the baseline value)
  MEC: 6.93 nM

Source: patent US20260174716A1, “CRYSTAL FORM OF ALKYL CARBOXYLIC ACID COMPOUND AND USE THEREOF” (CONSUN PHARMACEUTICAL (INNER MONGOLIA) CO. LTD, priority 2022, published 2026)
